Laboratory results as given in PMC8454092 (European Journal of Medicinal Chemistry, 2021).

Experiments:
[1] = test system: SARS-CoV-2 RNA synthesis; format: cell-based
[2] = test system: EBOV trVLP RNA synthesis; format: cell-based, Ebola virus
[3] = test system: SARS-CoV-2; format: cell-based; conditions: for IC50: read-out: VeroE6 IC50
[4] = test system: EBOV trVLP; format: cell-based, Ebola virus; conditions: for IC50: read-out: EBOV trVLP IC50
[5] = human
[6] = test system: X4 strain of HIV-1; conditions: cited from earlier work
[7] = test system: Vero E6 cells
[8] = test system: Huh-7 cells
[9] = test system: Ce-FF; format: cell-based; conditions: read-out: Ce-FF IC50
[10] = test system: EBOV infection; conditions: in vivo; cited from earlier work
[11] = test system: Covid-19; conditions: human, in vivo; cited from earlier work

CCCCCCCCCCCCCC(=O)O[C@H]1[C@@H](OC(=O)CCCCCCCCCCCCC)[C@](C#N)(c2ccc3c(N)ncnn23)O[C@@H]1CO[P@@](=O)(N[C@H](C)C(=O)OCC(CC)CC)Oc1ccccc1 [Compound 5a, ((2R,3R,4R,5R)-2-(4-Aminopyrrolo[2,1-f][1,2,4]triazin-7-yl)-2-cyano-5-((((((R)-1-(2-ethylbutoxy)-1-oxopropan-2-yl)amino)(phenoxy)phosphoryl)oxy)methyl)tetrahydro-furan-3,4-diyl ditetradecanoate]
SARS-CoV-2 viral RNA synthesis [1]: significant reduction in viral RNA synthesis was observed for all compounds apart from disubstituted compound 5a

CCCCCCCCCCCCCC(=O)O[C@@H]1[C@H](O)[C@@H](CO[P@@](=O)(N[C@H](C)C(=O)OCC(CC)CC)Oc2ccccc2)O[C@@]1(C#N)c1ccc2c(N)ncnn12 [Compound 3a, (2R,3R,4R,5R)-2-(4-Aminopyrrolo[2,1-f][1,2,4]triazin-7-yl)-2-cyano-5-((((((R)-1-(2-ethylbutoxy)-1-oxopropan-2-yl)amino)(phenoxy)phosphoryl)oxy)methyl)-4-hydroxytetra-hydrofuran-3-yl tetradecanoate]
EBOV trVLP viral RNA synthesis [2]: significant reduction in viral RNA synthesis | SARS-CoV-2 viral RNA synthesis [1]: significant reduction in viral RNA synthesis

[N-]=[N+]=NCCCCCCCCCCCC(=O)O [12-Azidododecanoic acid, reference compound]
anti-SARS-CoV-2 activity in Vero E6 cells [3]: did not exhibit any anti-SARS-CoV-2 activity | activity against EBOV trVLP [4]: no inhibitory activity

CCCCCCCCCCOCCC(=O)O[C@@H]1[C@H](O)[C@@H](CO[P@@](=O)(N[C@H](C)C(=O)OCC(CC)CC)Oc2ccccc2)O[C@@]1(C#N)c1ccc2c(N)ncnn12 [Compound 3b]
activity against EBOV trVLP [4]: comparable with RDV

CCCCCCCCCCCCCC(=O)O [Myristic acid, reference compound]
anti-SARS-CoV-2 activity in Vero E6 cells [3]: did not exhibit any anti-SARS-CoV-2 activity | activity against EBOV trVLP [4]: no inhibitory activity

CCC(CC)COC(=O)[C@@H](C)N[P@](=O)(OC[C@H]1O[C@@](C#N)(c2ccc3c(N)ncnn23)[C@H](O)[C@@H]1OC(=O)CCCCCCCCCCCN=[N+]=[N-])Oc1ccccc1 [Compound 4c, (2R,3S,4R,5R)-5-(4-Aminopyrrolo[2,1-f][1,2,4]triazin-7-yl)-5-cyano-2-((((((R)-1-(2-ethylbutoxy)-1-oxopropan-2-yl)amino)(phenoxy)phosphoryl)oxy)methyl)-4-hydroxy-tetrahydrofuran-3-yl-12-azidododecanoate]
active triphosphate metabolite observed at 8 h [5]: 11.3% | active triphosphate metabolite observed at 12 h [5]: 10.04% | active triphosphate metabolite observed at 24 h [5]: 19.01%

CCSCCCCCCCCCCCC(=O)O [12-thioethyldodecanoic acid, reference compound]
anti-SARS-CoV-2 activity in Vero E6 cells [3]: did not exhibit any anti-SARS-CoV-2 activity | activity against EBOV trVLP [4]: no inhibitory activity

CCCCCCCCCCCCCC(=O)OC[C@@H]1O[C@H](n2cc(F)c(N)nc2=O)CS1 [5′-O-tetradecanoyl derivative of FTC]
fold more activity than FTC [6]: 19 fold

(2R,3R,4R,5R)-2-(4-Aminopyrrolo[2,1-f][1,2,4]triazin-7-yl)-2-cyano-5-((((((R)-1-(2-ethylbutoxy)-1-oxopropan-2-yl)amino)(phenoxy)phosphoryl)oxy)methyl)tetrahydrofuran-3,4-diyl ditetradecanoate [Compound 5b]
EBOV trVLP viral RNA synthesis [2]: significant reduction in viral RNA synthesis was observed for all compounds apart from disubstituted compound 5b | IC50 [3]: > 50 µM | activity against EBOV trVLP [4]: no inhibitory activity | IC50 [4]: > 50 µM | CC50 [7]: > 50 µM | CC50 [8]: > 50 µM | IC50 [9]: > 50 µM

CCCCCCCCCCOCCC(=O)O[C@H]1[C@@H](O)[C@](C#N)(c2ccc3c(N)ncnn23)O[C@@H]1CO[P@@](=O)(N[C@H](C)C(=O)OCC(CC)CC)Oc1ccccc1 [Compound 4b, (2R,3S,4R,5R)-5-(4-Aminopyrrolo[2,1-f][1,2,4]triazin-7-yl)-5-cyano-2-((((((R)-1-(2-ethylbutoxy)-1-oxopropan-2-yl)amino)(phenoxy)phosphoryl)oxy)methyl)-4-hydroxy-tetrahydrofuran-3-yl-3-(decyloxy)propanoate]
EBOV trVLP viral RNA synthesis [2]: significant reduction in viral RNA synthesis | SARS-CoV-2 viral RNA synthesis [1]: significant reduction in viral RNA synthesis | activity against EBOV trVLP [4]: comparable activity with RDV

CCSCCCCCCCCCCCC(=O)O[C@@H]1[C@H](O)[C@@H](CO[P@@](=O)(N[C@H](C)C(=O)OCC(CC)CC)Oc2ccccc2)O[C@@]1(C#N)c1ccc2c(N)ncnn12 [Compound 3e]
activity against EBOV trVLP [4]: comparable with RDV

CCC(CC)COC(=O)[C@H](C)N[P@](=O)(OC[C@H]1O[C@@](C#N)(c2ccc3c(N)ncnn23)[C@H](O)[C@@H]1O)Oc1ccccc1 [RDV, remdesivir, reference compound]
EBOV trVLP viral RNA synthesis [2]: significant reduction in viral RNA synthesis | mortality [10]: 53% | median time to recovery [11]: 11 days | mortality rate [11]: 7.1% | SARS-CoV-2 viral RNA synthesis [1]: significant reduction in viral RNA synthesis | active triphosphate metabolite observed at 12 h [5]: approximately 22.2% | active triphosphate metabolite observed at 24 h [5]: 26.3% | degradation after 1 h [5]: around 13%

(2R,3R,4R,5R)-2-(4-Aminopyrrolo[2,1-f][1,2,4]triazin-7-yl)-2-cyano-5-((((((R)-1-(2-ethylbutoxy)-1-oxopropan-2-yl)amino)(phenoxy)phosphoryl)oxy)methyl)-4-hydroxytetra hydrofuran-3-yl palmitate [Compound 3c]
IC50 [3]: 4.6 µM | IC50 [4]: 0.5 µM | CC50 [7]: > 50 µM | CC50 [8]: 27 µM | IC50 [9]: > 50 µM

CCCCCCCCCCOCCC(=O)O [4-Oxatetradecanoic acid, reference compound]
anti-SARS-CoV-2 activity in Vero E6 cells [3]: did not exhibit any anti-SARS-CoV-2 activity | activity against EBOV trVLP [4]: no inhibitory activity

B1: MAB114 (antibody, chains of the INN, looked up, V domains shown)
VH: EVQLVESGGGLIQPGGSLRLSCAASGFALRMYDMHWVRQTIDKRLEWVSAVGPSGDTTYADSVKGRFAVSRENAKNSLSLQMNSLTAGDTAIYYCVRSDRGVAGLFDSWGQGILVTVSS
VL: DIQMTQSPSSLSASVGDRITITCRASQAFDNYVAWYQQRPGKVPKLLISAASALHAGVPSRFSGSGSGTHFTLTISSLQPEDVATYYCQNYNSAPLTFGGGTKVEIK
mortality [10]: 35%
